# In US20070276008A1, “Pharmaceutical formulation comprising glycine as a stabilizer” (Eisai Company Limited, priority 1997, published 2007):
# Read-outs that look alike come from different tables or passages of the source.
# Key:
# [1] = format: physicochemical
# Method: A, B, and C contain 7.5 mg/mL glycine, equal to 100 mM glycine. D and E have 11.25 mg/mL glycine, equal to 150 mM glycine. F is the control without glycine.
# [2] = Glycine concentration and temperature studies: chemical stability (residual potency and impurity levels); format: physicochemical
# Method: A, B, and C contain 7.5 mg/mL glycine, equal to 100 mM glycine. […] F is the control without glycine.
# [3] = Preliminary buffer evaluation (phosphate vs glycine-NaOH); format: physicochemical
# Method: It is desirable that the pH of solutions of compound 1 and other compounds of the invention in 5% dextrose or normal saline remain in a range near about pH 10 to provide for an acceptable use period in a clinical setting. Phosphate and glycine buffer systems were tested.
# Based on this propensity to precipitate, phosphate was disqualified as a buffer for the compounds of the invention.
# [4] = Reduced glycine concentration experiments: color change in 0.9% saline pH 10; format: physicochemical
# Method: Absorption measurements were taken at the zero time point, and at 2, 4, 6, and 8 hours after dissolution. […] The glycine concentration-dependence of compound 1 discoloration was evaluated at […] after dissolution.
# [5] = Effect of storage conditions (light, temperature) on absorbance 400-650 nm; format: physicochemical; settings: 2 mg/mL, 0.9% saline
# Method: The effect of exposure to light and temperature was evaluated as a function of time for 0.9% saline solutions containing 2 mg/mL compound 1, with or without 10 mM glycine-NaOH buffer, was evaluated by monitoring absorbance at 400, 450, 500, 600, and 650 nm.
# [6] = Discoloration on reconstitution in aqueous solutions for intravenous administration; format: physicochemical; settings: e.g. 5% dextrose or 0.9% saline
# From the text: It has been found by the present inventors that anti-ulcerative compounds such as compound 1 and the compounds described by general formula I below discolor when they are reconstituted, i.e., dissolved, in aqueous solutions, particularly in solutions suitable for intravenous administration, e.g., 5% dextrose or 0.9% saline. Such solutions quickly turn yellow to yellow-brown.
# [7] = pH studies: chemical (HPLC) and physical (color) stability in water for injection; settings: for Chemical and physical stability: 24 hours
smiles,measurement,setting,value
COCCCOc1ccnc(C[S+]([O-])c2nc3ccccc3[nH]2)c1C (centres unmarked) [compound 1],Color formation,[1]; 5° C. compared to room temperature,significantly retarded
same,Discoloration,"[1]; solutions devoid of glycine, regardless of temperature",discolored very quickly
same,Discoloration,[1]; solutions with greater glycine concentrations,discolored more slowly
same,Difference in chemical stability between glycine formulations,"[2]; 0 mM, 100 mM and 150 mM glycine",No substantial difference
same,Increase in impurity levels,"[2]; 5° C., pH 10.5 to 11, 24 hours",without measurable increases
same,Impurities measured,"[2]; room temperature, pH 10.5, 24 hours",> 1%
same,Increase in impurities,"[2]; room temperature, pH 11 solution, 24 hours",< 0.5%
same,Color formation,"[3]; 50 mM phosphate buffer, compared with unbuffered solutions",color formation was not inhibited
same,Discoloration,"[3]; 100 mM glycine/NaOH, pH above 10",substantially slower
same,Appearance on reconstitution,[3]; phosphate-containing plugs,hazy solutions
same,Appearance after freeze-drying,[3]; solutions in phosphate and glycine buffers,"white, well-formed plugs"
same,Rate of discoloration (absorption),"[4]; 4 mg/mL, 0.9% saline pH 10, 25° C. dark, 0-8 hours, glycine-free vs 50 mM glycine",much greater rate
same,Difference in absorbance spectrum between glycine concentrations,"[4]; 4 mg/mL, 0.9% saline pH 10, 5, 10, 25, 50 mM glycine-NaOH, 5 hours",little difference
same,Absorbance,"[4]; 5 mM glycine-NaOH solution, 5 hours post-dissolution",noticeably higher absorbance
same,Effect of glycine-NaOH buffer on absorption,"[5]; 10 mM glycine-NaOH, all wavelengths, temperatures, lighting conditions",decreases absorption
same,Effect of exposure to light on color development,[5]; with or without 10 mM glycine-NaOH,no detrimental effect
same,Color development with increasing storage temperature,[5]; without glycine-NaOH buffer,increase in undesirable color development
same,Color on reconstitution in aqueous solutions,[6],discolor
same,Order of chemical and physical stability by pH,"[7]; 5° C. and room temperature, 8 mg/mL in WFI",pH 11.5>pH 11>pH 10.5>pH 10>pH 9.5
same,Time until solutions began to assume a yellow color,"[7]; pH 9.5, 8 mg/mL in WFI",≤ 30 min
same,Chemical and physical stability,"[7]; pH 10.5, cold temperatures (5° C.)",adequate
same,Chemical and physical stability,"[7]; pH 10.5, room temperature",marginally stable
same,Stability for manufacture and handling in preparation for freeze drying,"[7]; pH 11 or greater, cold temperatures",adequately stable
